Source: patent US10004701B2, “Methods and compositions for treating infection” (UNIVERSITY OF ROCHESTER, priority 2012, dated 2018)
Counter-ions that a name gives are not always drawn. Like-named read-outs stand apart in the source and are kept apart here.

Legend:
Assay in all cases: AK assay 384-well format, Prestwick library screening
[1] = tested on: A. baumannii strain 98-37-09; assay type: cell-based, Acinetobacter baumannii; settings: 50 μM final drug concentration; for fold induction at 50 µM: Acinetobacter baumannii, 983709, 3 h
E. cloacae = assay type: cell-based, Enterobacter cloacae; settings: 50 μM final drug concentration; for fold induction at 50 µM: Enterobacter cloacae, 3 h
E. faecium = assay type: cell-based, Enterococcus faecium; settings: 50 μM final drug concentration; for fold induction at 50 µM: Enterococcus faecium, 3 h
K. pneumoniae = assay type: cell-based, Klebsiella pneumoniae; settings: 50 μM final drug concentration; for fold induction at 50 µM: Klebsiella pneumoniae, 3 h
E. coli = assay type: cell-based, Escherichia coli; settings: 50 μM final drug concentration; for fold induction at 50 µM: Escherichia coli, 3 h
[2] = tested on: S. aureus strain USA300-0114; assay type: cell-based, Staphylococcus aureus; settings: 50 μM final drug concentration; for fold induction at 50 µM: Staphylococcus aureus, USA300, 3 h
P. aeruginosa = assay type: cell-based, Pseudomonas aeruginosa; settings: 50 μM final drug concentration; for fold induction at 50 µM: Pseudomonas aeruginosa, 3 h
[3] = planktonic, cutoff for positive-scoring molecules 3-fold increase
[4] = planktonic A. baumannii, positive cutoff 3-fold increase
[5] = planktonic E. cloacae, positive cutoff 3-fold increase
[6] = planktonic E. faecium, positive cutoff 3-fold increase
[7] = planktonic K. pneumoniae, positive cutoff 3-fold increase
[8] = planktonic S. aureus, positive cutoff 3-fold increase
[9] = planktonic P. aeruginosa, positive cutoff 3-fold increase
[10] = planktonic, cutoff for positive 3-fold increase

Molecule: CN(C)C/C=C(/c1ccc(Br)cc1)c1cccnc1 [Zimelidine dihydrochloride monohydrate]
- fold induction at 50 µM ([1]; 384-well format, cutoff for positive-scoring molecules 3-fold increase, read-out: AK-based Prestwick Library Screening Results, A. baumannii (increase in extracellular AK activity)): 0.7
- fold induction at 50 µM (E. cloacae; 384-well format, cutoff for positive-scoring molecules 3-fold increase, read-out: AK-based Prestwick Library Screening Results, E. cloacae (increase in extracellular AK activity)): 0.8
- fold induction at 50 µM (E. faecium; 384-well format, cutoff for positive-scoring molecules 3-fold increase, read-out: AK-based Prestwick Library Screening Results, E. faecium (increase in extracellular AK activity)): 0.9
- fold induction at 50 µM (K. pneumoniae; 384-well format, cutoff for positive-scoring molecules 3-fold increase, read-out: AK-based Prestwick Library Screening Results, K. pneumoniae (increase in extracellular AK activity)): 0.5
- fold induction at 50 µM (E. coli; 384-well format, cutoff for positive-scoring molecules 3-fold increase, read-out: AK-based Prestwick Library Screening Results, E. coli (increase in extracellular AK activity)): 0.7
- fold induction at 50 µM ([2]; 384-well format, cutoff for positive-scoring molecules 3-fold increase, read-out: AK-based Prestwick Library Screening Results, S. aureus (increase in extracellular AK activity)): 0.8
- fold induction at 50 µM (P. aeruginosa; 384-well format, cutoff for positive-scoring molecules 3-fold increase, read-out: AK-based Prestwick Library Screening Results, P. aeruginosa (increase in extracellular AK activity)): 0.6

Molecule: Cc1cc(CC(=O)O)n(C)c1C(=O)c1ccc(Cl)cc1 [Zomepirac sodium salt]
- fold induction at 50 µM ([1]; cutoff for positive-scoring molecules 3-fold increase, read-out: AK-based Prestwick Library Screening Results, A. baumannii (fold increase in extracellular AK activity)): 1.1
- fold induction at 50 µM (E. cloacae; cutoff for positive-scoring molecules 3-fold increase, read-out: AK-based Prestwick Library Screening Results, E. cloacae (fold increase in extracellular AK activity)): 1.6
- fold induction at 50 µM (E. faecium; cutoff for positive-scoring molecules 3-fold increase, read-out: AK-based Prestwick Library Screening Results, E. faecium (fold increase in extracellular AK activity)): 1.1
- fold induction at 50 µM (K. pneumoniae; cutoff for positive-scoring molecules 3-fold increase, read-out: AK-based Prestwick Library Screening Results, K. pneumoniae (fold increase in extracellular AK activity)): 1
- fold induction at 50 µM (E. coli; cutoff for positive-scoring molecules 3-fold increase, read-out: AK-based Prestwick Library Screening Results, E. coli (fold increase in extracellular AK activity)): 1.1
- fold induction at 50 µM ([2]; cutoff for positive-scoring molecules 3-fold increase, read-out: AK-based Prestwick Library Screening Results, S. aureus (fold increase in extracellular AK activity)): 0.9
- fold induction at 50 µM (P. aeruginosa; cutoff for positive-scoring molecules 3-fold increase, read-out: AK-based Prestwick Library Screening Results, P. aeruginosa (fold increase in extracellular AK activity)): 0.9

Molecule: OCCN1CCN(CC/C=C2/c3ccccc3Sc3ccc(Cl)cc32)CC1 [Zuclopenthixol hydrochloride]
- fold induction at 50 µM ([1]; planktonic A. baumannii, positive cutoff 3-fold increase, read-out: AK-based Prestwick library screening result, A. baumannii (fold increase in extracellular AK activity)): 1.9
- fold induction at 50 µM (E. cloacae; planktonic E. cloacae, positive cutoff 3-fold increase, read-out: AK-based Prestwick library screening result, E. cloacae (fold increase in extracellular AK activity)): 1.3
- fold induction at 50 µM (E. faecium; planktonic E. faecium, positive cutoff 3-fold increase, read-out: AK-based Prestwick library screening result, E. faecium (fold increase in extracellular AK activity)): 1
- fold induction at 50 µM (K. pneumoniae; planktonic K. pneumoniae, positive cutoff 3-fold increase, read-out: AK-based Prestwick library screening result, K. pneumoniae (fold increase in extracellular AK activity)): 1
- fold induction at 50 µM (E. coli; planktonic E. coli, positive cutoff 3-fold increase, read-out: AK-based Prestwick library screening result, E. coli (fold increase in extracellular AK activity)): 1.2
- fold induction at 50 µM ([2]; planktonic S. aureus, positive cutoff 3-fold increase, read-out: AK-based Prestwick library screening result, S. aureus (fold increase in extracellular AK activity)): 0.7
- fold induction at 50 µM (P. aeruginosa; planktonic P. aeruginosa, positive cutoff 3-fold increase, read-out: AK-based Prestwick library screening result, P. aeruginosa (fold increase in extracellular AK activity)): 0.9

Molecule: CC1=C2[C@H]3OC(=O)[C@@H](C)[C@@H]3CC[C@@]2(C)C=CC1=O [alpha-Santonin]
- fold induction at 50 µM ([1]; planktonic A. baumannii, […], read-out: AK-based Prestwick library screening result, A. baumannii (fold increase in extracellular AK activity)): 0.8
- fold induction at 50 µM (E. cloacae; planktonic E. cloacae, […], read-out: AK-based Prestwick library screening result, E. cloacae (fold increase in extracellular AK activity)): 0.9
- fold induction at 50 µM (E. faecium; planktonic E. faecium, […], read-out: AK-based Prestwick library screening result, E. faecium (fold increase in extracellular AK activity)): 1
- fold induction at 50 µM (K. pneumoniae; planktonic K. pneumoniae, […], read-out: AK-based Prestwick library screening result, K. pneumoniae (fold increase in extracellular AK activity)): 0.7
- fold induction at 50 µM (E. coli; planktonic E. coli, […], read-out: AK-based Prestwick library screening result, E. coli (fold increase in extracellular AK activity)): 0.8
- fold induction at 50 µM ([2]; planktonic S. aureus, […], read-out: AK-based Prestwick library screening result, S. aureus (fold increase in extracellular AK activity)): 0.9
- fold induction at 50 µM (P. aeruginosa; planktonic P. aeruginosa, […], read-out: AK-based Prestwick library screening result, P. aeruginosa (fold increase in extracellular AK activity)): 0.9

Molecule: CC[N+]1(C)[C@@H]2CC[C@H]1CC(OC(=O)[C@@H]1CC[C@@](C(=O)OC3C[C@H]4CC[C@@H](C3)[N+]4(C)CC)(c3ccccc3)c3ccccc31)C2.[Cl-].[Cl-] (stereo partly drawn) [beta-Belladonnine dichloroethylate]
- AK-based Prestwick Library Screening Results, A. baumannii (fold increase in extracellular AK activity) ([1]; planktonic, […]): 1.0
- AK-based Prestwick Library Screening Results, E. cloacae (fold increase in extracellular AK activity) (E. cloacae; planktonic, […]): 1.3
- AK-based Prestwick Library Screening Results, E. faecium (fold increase in extracellular AK activity) (E. faecium; planktonic, […]): 1.0
- AK-based Prestwick Library Screening Results, K. pneumoniae (fold increase in extracellular AK activity) (K. pneumoniae; planktonic, […]): 0.9
- AK-based Prestwick Library Screening Results, E. coli (fold increase in extracellular AK activity) (E. coli; planktonic, […]): 1.2
- AK-based Prestwick Library Screening Results, S. aureus (fold increase in extracellular AK activity) ([2]; planktonic, […]): 1.3
- AK-based Prestwick Library Screening Results, P. aeruginosa (fold increase in extracellular AK activity) (P. aeruginosa; planktonic, […]): 1.2

Molecule: CC(C)(CO)[C@@H](O)C(=O)NCCC(=O)O [calcium salt monohydrate]
- fold induction at 50 µM ([1]; planktonic, cutoff for positive 3-fold increase, read-out: AK-based Prestwick Library Screening Results, A. baumannii (fold increase in extracellular AK activity)): 1.1
- fold induction at 50 µM (E. cloacae; planktonic, cutoff for positive 3-fold increase, read-out: AK-based Prestwick Library Screening Results, E. cloacae (fold increase in extracellular AK activity)): 1.4
- fold induction at 50 µM (E. faecium; planktonic, cutoff for positive 3-fold increase, read-out: AK-based Prestwick Library Screening Results, E. faecium (fold increase in extracellular AK activity)): 1.1
- fold induction at 50 µM (K. pneumoniae; planktonic, cutoff for positive 3-fold increase, read-out: AK-based Prestwick Library Screening Results, K. pneumoniae (fold increase in extracellular AK activity)): 1
- fold induction at 50 µM (E. coli; planktonic, cutoff for positive 3-fold increase, read-out: AK-based Prestwick Library Screening Results, E. coli (fold increase in extracellular AK activity)): 1.1
- fold induction at 50 µM ([2]; planktonic, cutoff for positive 3-fold increase, read-out: AK-based Prestwick Library Screening Results, S. aureus (fold increase in extracellular AK activity)): 1.1
- fold induction at 50 µM (P. aeruginosa; planktonic, cutoff for positive 3-fold increase, read-out: AK-based Prestwick Library Screening Results, P. aeruginosa (fold increase in extracellular AK activity)): 1

Molecule: CC(=O)N(CC(C)C(=O)O)c1c(I)cc(I)c(N)c1I (stereo not shown) [locetamic acid]
- AK-based Prestwick Library Screening Results, A. baumannii (fold increase in extracellular AK activity) [1, 3]: 0.8
- AK-based Prestwick Library Screening Results, E. cloacae (fold increase in extracellular AK activity) (E. cloacae; [3]): 1.4
- AK-based Prestwick Library Screening Results, E. faecium (fold increase in extracellular AK activity) (E. faecium; [3]): 0.9
- AK-based Prestwick Library Screening Results, K. pneumoniae (fold increase in extracellular AK activity) (K. pneumoniae; [3]): 0.8
- AK-based Prestwick Library Screening Results, E. coli (fold increase in extracellular AK activity) (E. coli; planktonic, […]): 0.9
- AK-based Prestwick Library Screening Results, S. aureus (fold increase in extracellular AK activity) [2, 3]: 0.8
- AK-based Prestwick Library Screening Results, P. aeruginosa (fold increase in extracellular AK activity) (P. aeruginosa; [3]): 0.9

Molecule: CNC(=O)c1c(I)c(C(=O)NCC(=O)Nc2c(I)c(C(=O)O)c(I)c(C(=O)NCCO)c2I)c(I)c(N(C)C(C)=O)c1I [loxaglic acid]
- AK-based Prestwick library screening result, A. baumannii (fold increase in extracellular AK activity) [1, 4]: 0.8
- AK-based Prestwick library screening result, E. cloacae (fold increase in extracellular AK activity) (E. cloacae; [5]): 1.1
- AK-based Prestwick library screening result, E. faecium (fold increase in extracellular AK activity) (E. faecium; [6]): 0.9
- AK-based Prestwick library screening result, K. pneumoniae (fold increase in extracellular AK activity) (K. pneumoniae; [7]): 0.8
- AK-based Prestwick library screening result, E. coli (fold increase in extracellular AK activity) (E. coli; planktonic E. coli, […]): 0.9
- AK-based Prestwick library screening result, S. aureus (fold increase in extracellular AK activity) [2, 8]: 0.6
- AK-based Prestwick library screening result, P. aeruginosa (fold increase in extracellular AK activity) (P. aeruginosa; [9]): 0.8

Molecule: (S)-(−)-Atenolol
- AK-based Prestwick Library Screening Results, A. baumannii (fold increase in extracellular AK activity) [1, 10]: 1.1
- AK-based Prestwick Library Screening Results, E. cloacae (fold increase in extracellular AK activity) (E. cloacae; [10]): 1.7
- AK-based Prestwick Library Screening Results, E. faecium (fold increase in extracellular AK activity) (E. faecium; [10]): 1.0
- AK-based Prestwick Library Screening Results, K. pneumoniae (fold increase in extracellular AK activity) (K. pneumoniae; [10]): 0.9
- AK-based Prestwick Library Screening Results, E. coli (fold increase in extracellular AK activity) (E. coli; [10]): 1.2
- AK-based Prestwick Library Screening Results, S. aureus (fold increase in extracellular AK activity) [2, 10]: 1.2
- AK-based Prestwick Library Screening Results, P. aeruginosa (fold increase in extracellular AK activity) (P. aeruginosa; [10]): 1.1

Molecule: (S)-propranolol hydrochloride
- AK-based Prestwick library screening result, A. baumannii (fold increase in extracellular AK activity) [1, 4]: 1.0
- AK-based Prestwick library screening result, E. cloacae (fold increase in extracellular AK activity) (E. cloacae; [5]): 1.6
- AK-based Prestwick library screening result, E. faecium (fold increase in extracellular AK activity) (E. faecium; [6]): 1.1
- AK-based Prestwick library screening result, K. pneumoniae (fold increase in extracellular AK activity) (K. pneumoniae; [7]): 1.0
- AK-based Prestwick library screening result, E. coli (fold increase in extracellular AK activity) (E. coli; planktonic E. coli, positive cutoff 3-fold increase): 1.2
- AK-based Prestwick library screening result, S. aureus (fold increase in extracellular AK activity) [2, 8]: 1.0
- AK-based Prestwick library screening result, P. aeruginosa (fold increase in extracellular AK activity) (P. aeruginosa; [9]): 1.1
